This is an account of results in US8673938B2, “Chemical compounds” (priority 2006, dated 2014).

Sequence of human 11βHSD1 enzyme (P28845 whole entry): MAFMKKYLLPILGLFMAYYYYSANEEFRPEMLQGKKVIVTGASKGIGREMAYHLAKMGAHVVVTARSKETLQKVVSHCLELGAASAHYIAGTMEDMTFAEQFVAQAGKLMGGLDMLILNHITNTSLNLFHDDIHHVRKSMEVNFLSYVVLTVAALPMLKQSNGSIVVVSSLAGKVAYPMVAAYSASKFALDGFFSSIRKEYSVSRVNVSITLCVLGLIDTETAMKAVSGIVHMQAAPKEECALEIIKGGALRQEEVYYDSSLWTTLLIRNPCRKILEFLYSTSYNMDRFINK

The test addresses human 11βHSD1 enzyme (Homo sapiens (Human), UniProt P28845). The test can be described thus: biochemical. Particulars: read-out: % inhibition of human 11-βHSD.
As for `O=C(O)C[C@@H]1CCN(c2ccc(C(=O)N[C@H]3C4CC5CC3C[C@](OC(F)F)(C5)C4)c(SC3CCCCC3)n2)C1` [Example 175, 2-[(3S)-1-[6-Cyclohexylsulfanyl-5-[[(2r,5s)-5-(difluoromethoxy)-2-adamantyl]carbamoyl]pyridin-2-yl]pyrrolidin-3-yl]acetic acid], the inhibition – broadly, the change of the read-out against control, counted positive when it falls – at 30 µM was determined as 91%.
With `O=C(O)C[C@@H]1CCCN(c2ccc(C(=O)NC3CCCCC3)c(N3CCc4ccccc4C3)n2)C1` [compound 144, 2-[(3S)-1-[5-(cyclohexylcarbamoyl)-6-(3,4-dihydro-1H-isoquinolin-2-yl)pyridin-2-yl]-3-piperidyl]acetic acid] the figure was 93%; with `CCCSc1nc(Oc2ccc(C(C)C(=O)O)cc2)ccc1C(=O)NC1CCCCC1` (stereo not drawn) [Example 21, 2-[4-[5-(cyclohexylcarbamoyl)-6-propylsulfanyl-pyridin-2-yl]oxyphenyl]propanoic acid], 88%; with `COc1nc(N2CCC[C@@H](CC(=O)O)C2)ccc1C(=O)NC1CCCCC1` [compound 139, 2-[(3S)-1-[5-(cyclohexyl-carbamoyl)-6-methoxy-pyridin-2-yl]-3-piperidyl] acetic acid], 89%.
Turning to `CCCSc1nc(N2CCCC(OC(C)C(=O)O)C2)ccc1C(=O)NC1CCCCC1` (stereo not drawn) [Example 44], the inhibition at 30 µM was 85%.
Then `CCCSc1nc(Oc2ccc(C(=O)O)cc2)ccc1C(=O)NC1CCCCC1` [Example 16, 4-[5-(cyclohexylcarbamoyl)-6-propylsulfanyl-pyridin-2-yl]oxybenzoic acid], with 43%.
Consider `O=C(O)C[C@@H]1CCCN(c2ccc(C(=O)N[C@H]3C4CC5CC3C[C@@](O)(C5)C4)c(SC3CCCCC3)n2)C1` [Example 103], for which the inhibition at 30 µM was 90%.
In the case of `CCCSc1nc(N2CCC(C)(C(=O)O)CC2)ccc1C(=O)N[C@H]1C2CC3CC1C[C@@](O)(C3)C2` [Example 88, 1-[5-[[(2r,5s)-5-hydroxy-2-adamantyl]carbamoyl]-6-propylsulfanyl-pyridin-2-yl]-4-methyl-piperidine-4-carboxylic acid], the inhibition at 30 µM is 89%.
With `O=C(O)C[C@H]1CCCN(c2ccc(C(=O)NC3CCCCC3)c(SC3CCCC3)n2)C1` [Example 55, 2-[(3R)-1-[5-(cyclohexylcarbamoyl)-6-cyclopentylsulfanyl-pyridin-2-yl]-3-piperidyl]acetic acid] the figure was 89%; with `O=C(O)C[C@@H]1CCCN(c2ccc(C(=O)NC3CCCCC3)c(OCCc3cccnc3)n2)C1` [compound 138, 2-[(3S)-1-[5-(cyclohexyl-carbamoyl)-6-(2-pyridin-3-ylethoxy)pyridin-2-yl]-3-piperidyl] acetic acid], 98%; with `CCCSc1nc(N2CCCC(C(=O)O)CC2)ccc1C(=O)NC1CCCCC1` (stereo not drawn) [Example 31, 1-[5-(cyclohexylcarbamoyl)-6-propylsulfanyl-pyridin-2-yl]azepane-4-carboxylic acid], 94%.
With `CCCOc1nc(N2CCC[C@@H](CC(=O)O)C2)ccc1C(=O)N[C@H]1C2CC3CC1C[C@](OC(F)F)(C3)C2` [Example 181, 2-[(3S)-1-[5-[[(2r,5s)-5-(Difluoromethoxy)-2-adamantyl]carbamoyl]-6-propoxy-pyridin-2-yl]-3-piperidyl]acetic acid] the figure was 93%; with `O=C(O)C[C@@H]1CCCN(c2ccc(C(=O)NC3CCCCC3)c(SC3CCCC3)n2)C1` [Example 52, 2-[(3S)-1-[5-(cyclohexylcarbamoyl)-6-cyclopentylsulfanyl-pyridin-2-yl]-3-piperidyl]acetic acid], 92%; with `CCCSc1nc(N2CCC[C@@H](CC(=O)O)C2)ccc1C(=O)N[C@H]1CC[C@H](O)CC1` [Example 125, 2-[(3S)-1-[5-[(4-hydroxycyclohexyl)carbamoyl]-6-propylsulfanyl-pyridin-2-yl]-3-piperidyl]acetic acid], 102%.
Then `CCCSc1nc(N2CCC[C@@H](CC(=O)O)C2)ccc1C(=O)N(C)[C@H]1C2CC3CC1C[C@](OC)(C3)C2` [Example 170, [(3S)-1-[5-[((2r,5s)-5-Methoxyadamantan-2-yl)(methyl)carbamoyl]-6-(propylthio)pyridin-2-yl]piperidin-3-yl]acetic acid], with 92%; and `CCCSc1nc(N2CCC[C@@H](CC(=O)O)C2)ccc1C(=O)N(C)[C@H]1C2CC3CC1C[C@](O)(C3)C2` [Example 171, [(3S)-1-{5-[((2r,5s)-5-Hydroxyadamantan-2-yl)(methyl)carbamoyl]-6-(propylthio)pyridin-2-yl}piperidin-3-yl]acetic acid], with 97%; and `O=C(N[C@H]1C2CC3CC1C[C@@](O)(C3)C2)c1ccc(N2CCC[C@H]2C(=O)O)nc1SC1CCCC1` [Example 97, (2S)-1-[6-cyclopentylsulfanyl-5-[((2r,5s)-5-hydroxy-2-adamantyl)carbamoyl]pyridin-2-yl]pyrrolidine-2-carboxylic acid], with 97%.
On to `CCCSc1nc(N2CCCC(C(C)(C)C(=O)O)C2)ccc1C(=O)N[C@H]1C2CC3CC1C[C@](O)(C3)C2` (stereo partly drawn) [Example 92, 2-[1-[5-[((2r,5s)-5-hydroxy-2-adamantyl)carbamoyl]-6-propylsulfanyl-pyridin-2-yl]-3-piperidyl]-2-methyl-propanoic acid], for which the inhibition at 30 µM amounted to 89%.
With `O=C(O)C[C@@H]1CCN(c2ccc(C(=O)NC3C4CC5CC3CC(O)(C5)C4)c(SC3CCCC3)n2)C1` (stereo partly drawn) [Example 93, 2-[(3S)-1-[6-cyclopentylsulfanyl-5-[((2r,5s)-5-hydroxy-2-adamantyl)carbamoyl]pyridin-2-yl]pyrrolidin-3-yl]acetic acid], the inhibition at 30 µM amounted to 85%.
Turning to `CCCSc1nc(N2CCC[C@H]2C(=O)O)ccc1C(=O)NC1CCCCC1` [Example 27, (2S)-1-[5-(cyclohexylcarbamoyl)-6-propylsulfanyl-pyridin-2-yl]pyrrolidine-2-carboxylic acid], the inhibition at 30 µM came out at 94%.
Consider `CCCSc1nc(N2CCC[C@@H](CC(=O)O)C2)ccc1C(=O)N(CC)C1CCCCC1` [Example 123, 2-[(3S)-1-[5-(cyclohexyl-ethyl-carbamoyl)-6-propylsulfanyl-pyridin-2-yl]-3-piperidyl]acetic acid], for which the inhibition at 30 µM was 94%.
Take `CCCSc1nc(N2CCC[C@@H](CC(=O)O)C2)ccc1C(=O)N[C@H]1C2CC3CC1C[C@](OC(F)F)(C3)C2` [Example 179, 2-[(3S)-1-[5-[[(2r,5s)-5-(Difluoromethoxy)-2-adamantyl]carbamoyl]-6-propylsulfanyl-pyridin-2-yl]-3-piperidyl]acetic acid]: the inhibition at 30 µM came out at 87%.
Then `CCCSc1nc(Sc2ccc(CC(=O)O)cc2)ccc1C(=O)NC1CCCCC1` [Example 22, 2-[4-[5-(cyclohexylcarbamoyl)-6-propylsulfanyl-pyridin-2-yl]sulfanylphenyl]acetic acid], with 65%.
As for `O=C(O)CO[C@H]1CCN(c2ccc(C(=O)NC3C4CC5CC(C4)CC3C5)c(SC3CCCCC3)n2)C1` (stereo partly drawn) [Example 71, 2-[(3S)-l-[5-(2-adamantylcarbamoyl)-6-cyclohexylsulfanyl-pyridin-2-yl]pyrrolidin-3-yl]oxyacetic acid], the inhibition at 30 µM was found to be 92%.
